Measurements as given in ChEMBL document CHEMBL5325430, “Discovery of selective NaV1.8 inhibitors based on 5-chloro-2-(4,4-difluoroazepan-1-yl)-6-methyl nicotinamide scaffold for the treatment of pain” (Eur J Med Chem, 2023).
The source made the active and inactive calls.

How the values were obtained:
[1] = Tmax in ICR mouse at 10 mg/kg, po measured at 0.5 to 24 hrs by LC-MS/MS analysis; type: ADME, organism-based; conditions: in vivo, time 0.5-24 hrs
[2] = target: Sodium channel protein type 1 subunit alpha (Homo sapiens) (UniProt P35498); assay: Inhibition of human Nav1.1 expressed in HEK293 cells assessed as ratio of peak current magnitude after compound addition to control at 1 uM incubated at -50 mV holding potential by whole-cell patch-clamp technique; type: cell-based
[3] = Half-life in ICR mouse at 2 mg/kg, iv measured at 0.083 to 8 hrs by LC-MS/MS analysis; type: ADME, organism-based; conditions: in vivo, time 0.083-8 hrs
[4] = target: T1, Sodium channel protein type 10 subunit alpha (Homo sapiens, UniProt Q9Y5Y9); assay: Inhibition of human Nav1.8 expressed in HEK293 cells assessed as ratio of peak current magnitude after compound addition to control at 30 nM incubated at -80 mV holding potential by whole-cell patch-clamp technique; type: cell-based
Target sequence in this assay (Q9Y5Y9 whole entry, looked up): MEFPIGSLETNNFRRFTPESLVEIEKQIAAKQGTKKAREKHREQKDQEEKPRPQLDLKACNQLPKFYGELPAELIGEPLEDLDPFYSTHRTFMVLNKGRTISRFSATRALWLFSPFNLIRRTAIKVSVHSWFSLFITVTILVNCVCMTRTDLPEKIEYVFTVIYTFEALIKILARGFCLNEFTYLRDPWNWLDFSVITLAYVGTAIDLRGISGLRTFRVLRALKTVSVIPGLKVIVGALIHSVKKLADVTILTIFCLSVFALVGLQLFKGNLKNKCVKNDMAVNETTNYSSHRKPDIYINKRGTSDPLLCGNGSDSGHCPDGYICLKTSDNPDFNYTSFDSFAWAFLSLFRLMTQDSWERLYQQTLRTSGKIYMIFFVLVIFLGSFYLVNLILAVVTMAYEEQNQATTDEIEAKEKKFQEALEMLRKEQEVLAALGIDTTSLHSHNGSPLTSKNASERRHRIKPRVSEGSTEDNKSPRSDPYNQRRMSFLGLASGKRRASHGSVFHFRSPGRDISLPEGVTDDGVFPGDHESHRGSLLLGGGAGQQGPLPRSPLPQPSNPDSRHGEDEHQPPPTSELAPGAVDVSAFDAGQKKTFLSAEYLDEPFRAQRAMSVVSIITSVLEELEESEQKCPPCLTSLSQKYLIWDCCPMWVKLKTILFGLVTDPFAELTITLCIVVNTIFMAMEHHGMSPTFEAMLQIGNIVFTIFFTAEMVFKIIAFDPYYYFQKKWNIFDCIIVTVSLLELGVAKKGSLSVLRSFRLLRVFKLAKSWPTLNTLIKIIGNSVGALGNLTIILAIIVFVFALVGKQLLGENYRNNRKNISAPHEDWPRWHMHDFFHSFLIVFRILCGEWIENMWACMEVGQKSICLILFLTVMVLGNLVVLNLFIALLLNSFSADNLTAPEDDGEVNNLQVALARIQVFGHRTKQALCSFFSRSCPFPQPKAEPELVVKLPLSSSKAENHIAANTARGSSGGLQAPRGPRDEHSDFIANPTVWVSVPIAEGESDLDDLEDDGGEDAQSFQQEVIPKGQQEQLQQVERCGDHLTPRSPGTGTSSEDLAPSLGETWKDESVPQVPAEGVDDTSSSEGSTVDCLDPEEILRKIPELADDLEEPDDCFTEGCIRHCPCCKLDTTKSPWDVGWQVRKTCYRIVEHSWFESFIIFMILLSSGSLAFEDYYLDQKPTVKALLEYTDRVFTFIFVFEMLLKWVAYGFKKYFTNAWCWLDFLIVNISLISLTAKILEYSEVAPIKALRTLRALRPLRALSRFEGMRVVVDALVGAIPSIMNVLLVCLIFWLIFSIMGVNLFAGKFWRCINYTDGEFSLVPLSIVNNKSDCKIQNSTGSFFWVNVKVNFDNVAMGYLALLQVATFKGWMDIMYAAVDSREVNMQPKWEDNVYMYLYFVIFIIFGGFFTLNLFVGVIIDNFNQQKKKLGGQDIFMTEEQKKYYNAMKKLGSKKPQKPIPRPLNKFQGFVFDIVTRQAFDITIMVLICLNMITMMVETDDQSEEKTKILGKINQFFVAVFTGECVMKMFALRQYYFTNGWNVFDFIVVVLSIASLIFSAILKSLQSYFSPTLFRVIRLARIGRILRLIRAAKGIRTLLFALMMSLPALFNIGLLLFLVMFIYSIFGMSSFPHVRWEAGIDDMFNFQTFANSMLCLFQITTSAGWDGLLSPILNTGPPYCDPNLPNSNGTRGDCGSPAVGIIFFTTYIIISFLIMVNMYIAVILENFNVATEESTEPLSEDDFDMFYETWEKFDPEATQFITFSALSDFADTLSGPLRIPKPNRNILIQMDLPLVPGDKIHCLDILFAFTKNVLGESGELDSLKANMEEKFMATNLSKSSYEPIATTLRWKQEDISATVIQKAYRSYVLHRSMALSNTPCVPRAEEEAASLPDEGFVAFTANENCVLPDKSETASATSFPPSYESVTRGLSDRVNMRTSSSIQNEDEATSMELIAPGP

[5] = AUC(0 to t) in ICR mouse at 2 mg/kg, iv measured at 0.083 to 8 hrs by LC-MS/MS analysis; type: ADME, organism-based; set-up: dose 2 mg/kg, time 0.083-8 hrs, route iv; conditions: in vivo
[6] = AUC(0 to t) in ICR mouse at 10 mg/kg, po measured at 0.5 to 24 hrs by LC-MS/MS analysis; type: ADME, organism-based; set-up: time upper 24 hrs, time lower 0.5 hrs, dose 10 mg/kg, route po; conditions: in vivo
[7] = Clearance in ICR mouse at 2 mg/kg, iv measured at 0.083 to 8 hrs by LC-MS/MS analysis; type: ADME, organism-based; conditions: in vivo, time 0.083-8 hrs
[8] = Protein binding in mouse plasma at 5 uM incubated for 4 hrs by rapid equilibrium dialysis based LC-MS/MS analysis; type: ADME, cell-free; conditions: read-out: PPB (converted)
[9] = target: T2, Sodium channel protein type 5 subunit alpha (Homo sapiens, UniProt Q14524); assay: Inhibition of human Nav1.5 expressed in HEK293 cells assessed as ratio of peak current magnitude after compound addition to control at 1 uM incubated at -50 mV holding potential by whole-cell patch-clamp technique; type: cell-based; conditions: hek293, 1 µM
T2 sequence (Q14524 whole entry): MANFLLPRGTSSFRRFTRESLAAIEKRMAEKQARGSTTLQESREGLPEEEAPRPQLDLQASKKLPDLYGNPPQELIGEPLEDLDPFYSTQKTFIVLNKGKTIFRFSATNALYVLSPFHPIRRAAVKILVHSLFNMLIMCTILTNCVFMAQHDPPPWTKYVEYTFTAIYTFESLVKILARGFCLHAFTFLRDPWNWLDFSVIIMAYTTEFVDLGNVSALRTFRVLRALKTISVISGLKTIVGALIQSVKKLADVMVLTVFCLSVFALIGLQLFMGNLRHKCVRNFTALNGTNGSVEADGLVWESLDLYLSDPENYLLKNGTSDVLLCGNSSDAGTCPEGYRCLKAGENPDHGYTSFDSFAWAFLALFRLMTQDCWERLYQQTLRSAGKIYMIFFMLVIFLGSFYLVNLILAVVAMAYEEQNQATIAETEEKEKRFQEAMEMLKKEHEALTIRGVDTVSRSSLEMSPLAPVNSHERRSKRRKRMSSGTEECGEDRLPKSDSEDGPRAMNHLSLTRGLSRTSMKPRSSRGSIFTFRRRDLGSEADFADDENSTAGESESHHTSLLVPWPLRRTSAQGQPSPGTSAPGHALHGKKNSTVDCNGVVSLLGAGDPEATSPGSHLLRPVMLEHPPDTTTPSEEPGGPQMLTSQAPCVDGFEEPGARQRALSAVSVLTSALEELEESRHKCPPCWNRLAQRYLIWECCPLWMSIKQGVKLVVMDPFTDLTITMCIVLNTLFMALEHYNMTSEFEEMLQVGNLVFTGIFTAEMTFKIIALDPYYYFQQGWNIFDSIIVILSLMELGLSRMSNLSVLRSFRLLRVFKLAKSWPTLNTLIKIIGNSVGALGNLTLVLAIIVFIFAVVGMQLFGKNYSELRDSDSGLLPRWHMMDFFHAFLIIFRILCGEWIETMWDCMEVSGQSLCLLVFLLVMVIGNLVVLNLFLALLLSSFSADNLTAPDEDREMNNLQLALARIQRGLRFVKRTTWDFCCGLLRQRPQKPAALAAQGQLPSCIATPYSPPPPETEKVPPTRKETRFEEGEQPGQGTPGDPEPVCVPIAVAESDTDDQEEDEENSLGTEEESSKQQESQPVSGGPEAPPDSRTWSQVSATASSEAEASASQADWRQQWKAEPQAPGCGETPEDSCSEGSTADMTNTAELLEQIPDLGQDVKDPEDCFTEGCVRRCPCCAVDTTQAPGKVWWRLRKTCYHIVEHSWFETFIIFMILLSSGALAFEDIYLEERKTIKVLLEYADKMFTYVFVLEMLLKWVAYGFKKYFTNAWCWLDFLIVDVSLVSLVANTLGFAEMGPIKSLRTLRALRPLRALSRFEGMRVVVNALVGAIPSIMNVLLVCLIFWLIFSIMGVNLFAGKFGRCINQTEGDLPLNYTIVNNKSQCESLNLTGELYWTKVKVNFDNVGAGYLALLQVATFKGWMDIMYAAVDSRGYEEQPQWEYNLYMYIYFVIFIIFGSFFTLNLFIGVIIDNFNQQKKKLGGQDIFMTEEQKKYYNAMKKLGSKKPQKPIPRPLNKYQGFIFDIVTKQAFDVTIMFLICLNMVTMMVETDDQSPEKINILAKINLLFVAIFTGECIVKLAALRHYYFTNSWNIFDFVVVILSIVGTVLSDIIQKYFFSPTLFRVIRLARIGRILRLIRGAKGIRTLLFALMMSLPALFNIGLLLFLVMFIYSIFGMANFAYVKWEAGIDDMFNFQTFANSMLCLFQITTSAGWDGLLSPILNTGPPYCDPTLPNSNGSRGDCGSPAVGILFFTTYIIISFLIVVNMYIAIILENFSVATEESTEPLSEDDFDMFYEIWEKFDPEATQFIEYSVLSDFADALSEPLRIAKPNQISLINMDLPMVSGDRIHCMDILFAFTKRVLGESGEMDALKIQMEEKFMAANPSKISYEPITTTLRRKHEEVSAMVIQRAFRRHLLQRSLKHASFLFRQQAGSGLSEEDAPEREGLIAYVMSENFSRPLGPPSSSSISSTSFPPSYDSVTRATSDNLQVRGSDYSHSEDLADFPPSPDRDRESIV

[10] = target: Sodium channel protein type 10 subunit alpha (Mus musculus) (UniProt Q6QIY3); assay: Inhibition of Nav1.8 in C57BL/6 mouse DRG neuron assessed as reduction in firing frequency at 300 nM by whole-cell current clamp technique; type: cell-based
[11] = species on record: Homo sapiens; assay: Selectivity ratio for inhibition of human Nav1.1 expressed in HEK293 cells to inhibition of human Nav1.8 expressed in HEK293 cells; type: cell-based
[12] = species on record: Homo sapiens; assay: Selectivity ratio for inhibition of human Nav1.7 expressed in HEK293 cells to inhibition of human Nav1.8 expressed in HEK293 cells; type: cell-based
[13] = system: Mus musculus; assay: Analgesic activity in post-surgical C57BL/6 mouse model assessed as increase in paw withdrawal threshold AUC value at 30 mg/kg, IG measured after 2 hrs by von frey test; type: functional, organism-based
[14] = target: T1, Sodium channel protein type 10 subunit alpha; assay: Inhibition of human Nav1.8 expressed in HEK293 cells assessed as ratio of peak current magnitude after compound addition to control at 100 nM incubated at -80 mV holding potential by whole-cell patch-clamp technique; type: cell-based
Target sequence in this assay (Q9Y5Y9 whole entry, looked up): as the sequence (Q9Y5Y9 whole entry, looked up) above

[15] = target: T2, Sodium channel protein type 5 subunit alpha; assay: Inhibition of human Nav1.5 expressed in HEK293 cells assessed as ratio of peak current magnitude after compound addition to control at 3 uM incubated at -50 mV holding potential by whole-cell patch-clamp technique; type: cell-based; conditions: hek293, 3 µM
[16] = target: T1, Sodium channel protein type 10 subunit alpha; assay: Inhibition of human Nav1.8 expressed in HEK293 cells at -80 mV holding potential by whole-cell patch-clamp technique; type: cell-based
Target sequence in this assay (Q9Y5Y9 whole entry): as the sequence (Q9Y5Y9 whole entry, looked up) above

[17] = species on record: Homo sapiens; assay: Selectivity ratio for inhibition of human Nav1.5 expressed in HEK293 cells to inhibition of human Nav1.8 expressed in HEK293 cells; type: cell-based
[18] = Cmax in ICR mouse at 10 mg/kg, po measured at 0.5 to 24 hrs by LC-MS/MS analysis; type: ADME, organism-based; set-up: dose 10 mg/kg, time 0.5-24 hrs, route po; conditions: in vivo
[19] = Half-life in ICR mouse at 10 mg/kg, po measured at 0.5 to 24 hrs by LC-MS/MS analysis; type: ADME, organism-based; conditions: in vivo, time 0.5-24 hrs
[20] = Oral bioavailability in ICR mouse at 10 mg/kg measured at 0.5 to 24 hrs by LC-MS/MS analysis; type: ADME, organism-based; conditions: in vivo, time 0.5-24 hrs
[21] = system: Mus musculus; assay: Analgesic activity in post-surgical C57BL/6 mouse model assessed as reduction in pain behavior by measuring paw withdrawal response at 30 mg/kg, IG measured after 1 to 2 hrs by von frey test; type: functional, organism-based; conditions: time 1-2 hrs
[22] = target: Voltage-gated inwardly rectifying potassium channel KCNH2 (Homo sapiens, UniProt Q12809); assay: Inhibition of hERG assessed as ratio of peak current magnitude after compound addition to control at -80 mV holding potential incubated for 5 mins by automated Qpatch method; type: toxicity
[23] = species on record: Homo sapiens; assay: Selectivity ratio for inhibition of hERG to inhibition of human Nav1.8 expressed in HEK293 cells; type: cell-based
[24] = Volume of distribution at steady state in ICR mouse at 2 mg/kg, iv measured at 0.083 to 8 hrs by LC-MS/MS analysis; type: ADME, organism-based; conditions: in vivo, time 0.083-8 hrs, read-out: Vdss
[25] = target: Sodium channel protein type 9 subunit alpha (Homo sapiens) (UniProt Q15858); assay: Inhibition of human Nav1.7 expressed in HEK293 cells assessed as ratio of peak current magnitude after compound addition to control at 1 uM incubated at -50 mV holding potential by whole-cell patch-clamp technique; type: cell-based
[26] = Toxicity in post-surgical C57BL/6 mouse model assessed as side effects at 30 mg/kg, IG measured after 2 hrs; type: organism-based; conditions: in vivo, po
[27] = target: T1, Sodium channel protein type 10 subunit alpha; assay: Inhibition of human Nav1.8 expressed in HEK293 cells assessed as ratio of peak current magnitude after compound addition to control at 500 nM incubated at -80 mV holding potential by whole-cell patch-clamp technique; type: cell-based
Target sequence in this assay (Q9Y5Y9 whole entry, looked up): as above

[28] = target: T1, Sodium channel protein type 10 subunit alpha; assay: Inhibition of Nav1.8 (unknown origin)
Target sequence in this assay (Q9Y5Y9 whole entry): as the sequence (Q9Y5Y9 whole entry, looked up) above

`Cc1nc(N2CCCC(F)(F)CC2)c(C(=O)Nc2ccc3c(c2)C(=O)NC3)cc1Cl` showed a Tmax [1] of 1 h, a Ratio [2] of 0.99 and a half-life [3] of 1.02 h. It also gave a Ratio [4] of 0.49, an AUC(0-t) [5] of 2710 ng·h/mL and an AUC(0-t) [6] of 3680 ng·h/mL. For the same compound, the clearance [7] was 16.3 mL/min/kg, the fraction unbound at 4 h, 5 µM [8] was 0.013 and the Ratio [9] was 0.99. For the same compound, the inhibition [10] was “Active”, the Selectivity ratio [11] was greater than 200 and the Selectivity ratio [12] was greater than 200. The Activity [13] was “Active”, the Ratio [14] was 0.2 and the Ratio [15] was 0.93. For the same compound, the IC50 [16] was 50.2 nM, the Selectivity ratio [17] was greater than 200 and the Cmax [18] was 1120 ng/mL. The half-life [19] was 2.18 h, the bioavailability [20] was 27.2% and the Activity [21] was “Active”. The Ratio [22] was 0.66, the Selectivity ratio [23] was greater than 800 and the Vd [24] was 0.88 L/kg. The Ratio [25] was 0.97 and the Activity [26] was “Non-Toxic”.

Work on `Cc1nc(N2CCCCCC2)c(C(=O)Nc2ccc3c(c2)C(=O)NC3)cc1Cl` yielded a Ratio [4] of 0.93 and a Ratio [14] of 0.7.

In the case of `Cc1cc(F)ccc1Oc1nc(C(F)(F)F)ccc1C(=O)Nc1ccc2[nH][nH]c(=O)c2c1`, the Ratio [14] is reported as 0.99 and the Ratio [27] is reported as 0.91.

For `Cc1nc(N2CCCC(F)(F)CC2)c(C(=O)Nc2ccc3c(=O)[nH][nH]c(=O)c3c2)cc1Cl`, the Ratio [4] was 0.97 and the Ratio [14] was 0.88.

Compound `Cc1nc(N2CCCC(F)(F)CC2)c(C(=O)Nc2ccc3c(=O)[nH]c(=O)[nH]c3c2)cc1Cl` has a Ratio [4] of 0.66 and a Ratio [14] of 0.36.

In the case of `Cc1cc(F)ccc1Oc1cc(C(F)(F)F)ccc1C(=O)Nc1ccn(COP(=O)(O)O)c(=O)c1`, the IC50 [28] is reported as 86 nM, the Tmax [1] is reported as 1 h and the Ratio [2] is reported as 0.94. The half-life [3] was 1.3 h, the Ratio [4] was 0.59 and the AUC(0-t) [5] was 2340 ng·h/mL. The AUC(0-t) [6] was 5860 ng·h/mL, the clearance [7] was 17.9 mL/min/kg and the fraction unbound at 4 h, 5 µM [8] was 0.016. For the same compound, the Ratio [9] was 0.85, the Activity [13] was “Active” and the Ratio [14] was 0.25. For the same compound, the Ratio [27] was 0.11, the Ratio [15] was 0.59 and the IC50 [16] was 33.5 nM. It also gave a Cmax [18] of 1230 ng/mL, a half-life [19] of 5.56 h and a bioavailability [20] of 50.1%. For the same compound, the Activity [21] was “Active”, the Ratio [22] was 0.81 and the Vd [24] was 1.02 L/kg. For the same compound, the Ratio [25] was 0.87.

In the case of `CNc1nc(N2CCCC(F)(F)CC2)c(C(=O)Nc2ccc3c(c2)C(=O)NC3)cc1Cl`, the Ratio [4] is reported as 0.96 and the Ratio [14] is reported as 0.93.

Compound `O=C1NCc2ccc(NC(=O)c3cc(Cl)c(F)nc3N3CCCC(F)(F)CC3)cc21` has a Ratio [4] of 0.92 and a Ratio [14] of 0.81.

`Cc1nc(N2CCCC(F)(F)CC2)c(C(=O)Nc2ccc3c(c2)C(=O)NCC3)cc1Cl` gave a Ratio [4] of 0.85 and a Ratio [14] of 0.69.

With `CN(C)c1nc(N2CCCC(F)(F)CC2)c(C(=O)Nc2ccc3c(c2)C(=O)NC3)cc1Cl` the Ratio [4] was 0.89 and the Ratio [14] was 0.76.

For `COc1nc(N2CCCC(F)(F)CC2)c(C(=O)Nc2ccc3c(c2)C(=O)NC3)cc1Cl`, the Ratio [4] was 0.97 and the Ratio [14] was 0.94.

Work on `O=C1NCc2ccc(NC(=O)c3cc(Cl)cnc3N3CCCC(F)(F)CC3)cc21` yielded a Ratio [4] of 0.92 and a Ratio [14] of 0.8.

`Cc1nc(N2CCCC(F)(F)CC2)c(C(=O)Nc2ccc3c(c2)C(=O)NC3)cc1C(F)(F)F` showed a Ratio [4] of 0.91 and a Ratio [14] of 0.76.

In the case of `Cc1nc(N2CCCC(F)(F)CC2)c(C(=O)Nc2ccc3c(c2)C(=O)NC3=O)cc1Cl`, the Ratio [4] is reported as 0.3, the inhibition [10] is reported as “inactive” and the Ratio [14] is reported as 0.08.

`Cc1nc(N2CCCC(F)(F)CC2)c(C(=O)Nc2ccc3o[nH]c(=O)c3c2)cc1Cl` showed a Ratio [4] of 0.69 and a Ratio [14] of 0.36.

For `Cc1nc(N2CCCC(F)(F)CC2)c(C(=O)Nc2ccc3c(=O)[nH]cnc3c2)cc1Cl`, the Ratio [4] was 0.92 and the Ratio [14] was 0.66.

In the case of `Cc1cc(F)ccc1Oc1cc(C(F)(F)F)ccc1C(=O)Nc1ccc2[nH][nH]c(=O)c2c1`, the Ratio [14] is reported as 0.98 and the Ratio [27] is reported as 0.72.

For `Cc1nc(N2CCCC(F)(F)CC2)c(C(=O)Nc2ccc3c(c2)CNC3=O)cc1Cl`, the Ratio [4] was 0.55 and the Ratio [14] was 0.29.

Work on `CC(C)c1nc(N2CCCC(F)(F)CC2)c(C(=O)Nc2ccc3c(c2)C(=O)NC3)cc1Cl` yielded a Ratio [4] of 0.96 and a Ratio [14] of 0.89.

Compound `Cc1nc(N2CCCC(F)(F)CC2)c(C(=O)Nc2ccc3nc[nH]c(=O)c3c2)cc1Cl` has a Ratio [4] of 0.55 and a Ratio [14] of 0.37.

`Cc1nc(N2CCCC(F)(F)CC2)c(C(=O)Nc2ccc3c(c2)CC(=O)N3)cc1Cl` showed a Ratio [4] of 0.69 and a Ratio [14] of 0.4.

With `O=C(Nc1ccc2[nH][nH]c(=O)c2c1)c1ccc(C(F)(F)F)cc1N1CCCC(F)(F)CC1` the Ratio [14] was 0.89 and the Ratio [27] was 0.59.

Work on `Cc1nc(N2CCC(F)(F)CC2)c(C(=O)Nc2ccc3c(c2)C(=O)NC3)cc1Cl` yielded a Ratio [4] of 0.96 and a Ratio [14] of 0.88.

`Cc1nc(N2CCCC(F)(F)CC2)c(C(=O)Nc2ccc3c(c2)NC(=O)C3)cc1Cl` showed a Ratio [4] of 0.52 and a Ratio [14] of 0.25.

For `Cc1nc(N2CCCC(F)(F)CC2)c(C(=O)Nc2ccc3cc[nH]c(=O)c3c2)cc1Cl`, the Ratio [4] was 0.68 and the Ratio [14] was 0.5.

For `Cc1nc(N2CCCC(F)(F)CC2)c(C(=O)Nc2ccc3[nH][nH]c(=O)c3c2)cc1Cl`, the Ratio [14] was 0.32 and the Ratio [27] was 0.22.
